Experimental data taken from patent US7119076B2, “Preventives or remedies for endometriosis or uterine myoma” (priority 2000, dated 2006).

Tested on: endometriosis model rats
Assay: Therapeutic effect in endometriosis model rats (autotransplanted uterine tissue on peritoneum), histology of lesion
Type: in vivo, Sprague-Dawley rats (female)
Conditions: oral, lesion excised seven days after preparation; for invasion of mast cells in lesion sample: light and electron microscopy; for degree of interstitial proliferative lesion: versus control group
Description: Endometriosis model rats were prepared by the method described in Michael W. Vernon et al., FERTILITY AND STERILITY, Vol. 44, No. 5, Nov. 1985. That is, endometriosis model rats were prepared as follows: Sprague-Dawley rats (female) of 8 weeks old were acclimatized for 2 weeks under 12 hours light-dark condition. From each rat, right uterine horn was excised under general anesthesia with sevoflurane and ketamine hydrochloride, and a tissue piece sizing 5 mm×5 mm was prepared therefrom. The tissue piece was subjected to autotransplantation such that the endometrium surface is attached to peritoneum.
From 24 hours after the preparation of the endometriosis model rats, commercially available clarithromycin tablets (trademark “Clarith Tablet 50 for Children” prepared by Taisho Pharmaceutical Co., Ltd) were orally administered to the rats for 3 days. […] Clarithromycin was not administered to control animals. Seven days after the preparation of the model rats, at which the model lesion reached its peak, the peritoneum tissue including the graft up to the abdominal muscle was excised to obtain a lesion sample. From the thus obtained samples, light microscope specimens (hematoxylin-eosin staining, toluidine blue staining) and electron microscope specimens (uranium-lead double staining) were prepared, and the existence of invaded mast cells, which is a symptom of endometriosis, and the degree of interstitial proliferative lesion were observed.

[1] = 10 mg/kg per day for 3 days from 24 hours after model preparation
[2] = 6 mg/kg per day for 3 days from 24 hours after model preparation

With `CC[C@H]1OC(=O)[C@H](C)[C@@H](O[C@H]2C[C@@](C)(OC)[C@@H](O)[C@H](C)O2)[C@H](C)[C@@H](O[C@@H]2O[C@H](C)C[C@H](N(C)C)[C@H]2O)[C@](C)(O)C[C@@H](C)CN(C)[C@H](C)[C@@H](O)[C@]1(C)O` [azithromycin] the “invasion of mast cells in lesion sample” value [1] was “not observed” and the “degree of interstitial proliferative lesion” value (from here on “degree”) [1] was “apparently reduced”.

For `CC[C@H]1OC(=O)[C@H](C)[C@@H](O[C@H]2C[C@@](C)(OC)[C@@H](O)[C@H](C)O2)[C@H](C)[C@@H](O[C@@H]2O[C@H](C)C[C@H](N(C)C)[C@H]2O)[C@](C)(OC)C[C@@H](C)C(=O)[C@H](C)[C@@H](O)[C@]1(C)O` [clarithromycin], the “invasion of mast cells in lesion sample” value [1] was “not observed” and the “degree” value [1] was “apparently reduced”.

In the case of `CC[C@H]1OC(=O)[C@H](C)[C@@H](O[C@H]2C[C@@](C)(OC)[C@@H](O)[C@H](C)O2)[C@H](C)[C@@H](O[C@@H]2O[C@H](C)C[C@H](N(C)C)[C@H]2O)[C@](C)(O)C[C@@H](C)/C(=N\OCOCCOC)[C@H](C)[C@@H](O)[C@]1(C)O` [roxithromycin], the “invasion of mast cells in lesion sample” value [2] is reported as “not observed” and the “degree” value [2] is reported as “apparently reduced”.
